According to patent publication US12062444B2, “Methods and compositions related to triple-negative breast cancer” (THE UNIVERSITY OF CHICAGO, priority 2017, dated 2024):
Entries after “also recorded” stand apart in the source; their conditions may differ.

Tests used:
GR LBD = target: T1, GR LBD (Homo sapiens, UniProt P04150); test: Ligand titration assay via fluorescence polarimetry (displacement of F-Dex); type: binding
T1 construct: The wild-type GR-LBD (amino acid residues 522-777) was cloned into a pFASTBAC plasmid; 6X-His (TEV-cleavable) (cleaved yes); made in house; host or cells: SF9 insect cells (baculovirus, pFASTBAC)
T1 sequence (P04150 522-777): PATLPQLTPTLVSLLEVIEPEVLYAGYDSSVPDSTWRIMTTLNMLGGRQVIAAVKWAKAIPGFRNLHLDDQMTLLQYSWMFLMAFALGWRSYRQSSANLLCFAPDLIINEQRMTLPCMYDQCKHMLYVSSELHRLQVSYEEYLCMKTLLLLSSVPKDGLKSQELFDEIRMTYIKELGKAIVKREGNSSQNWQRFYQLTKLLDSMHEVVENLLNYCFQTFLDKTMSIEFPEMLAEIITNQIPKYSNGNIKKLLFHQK
Protocol: SF9 insect cells were transfected with recombinant bacmid and virus (collected after 6 days) was amplified prior to protein expression. […] GR-LBD was purified first using Ni-affinity chromatography followed by overnight dialysis with TEV protease to remove the His tag. Extensive dialysis into 20 mM TRIS pH 8.0, 500 mM NaCl, 5% glycerol, 0.1% CHAPS, 0.25 mM TCEP was performed to obtain non-ligand-bound GR LBD. […] The purified proteins were concentrated to 5 mg/ml, flash frozen in 50 ul aliquots in N2(l), and stored at −80C.
GR LBD was diluted in assay buffer (20 mM TRIS pH 7.5, 50 mM NaCl, 0.25 mM TCEP) to a concentration of 50 nM. […] Triplicate FP measurements were scaled to maximal FP and averaged for each ligand concentration.

[1] = test system: GR chromatin association in MDA-MB-231 cells; test: GR ChIP-sequencing and analysis; type: cell-based, human; details: co-treatment with Dex
Protocol: MDA-MB-231 cells were grown to 80% confluence in 15-cm dishes in DMEM with 10% FBS, followed by 48h in DMEM supplemented with 2.5% charcoal-stripped FBS. […] Cells were cross-linked with 1% formaldehyde, quenched with glycine (final concentration of […]), and harvested. After cell lysis with ChIP lysis buffer (Magna ChIP A Chromatin Immunoprecipitation Kit, EMD Millipore), cells were sonicated to achieve the majority of DNA fragments between 200-400 bp. Input samples were preserved at -80° C. […] Following manufacturer's protocol, chromatin was eluted from GR ChIP and input samples. Library build and sequencing was performed at the University of Oregon Genomics Core facility using the NextSeq 500 sequencer. Quality control on sequences and adapter sequencing trimming was performed using Kapa Biosystems Illumina Library Quantification Kit. ChIP-seq analysis was carried out using the Galaxy platform (usegalaxy.org (111)). […] GR peaks for each treatment were normalized to its own input control sample. […] Selected GR peak locations in hg19 and GR peak maps were also individually analyzed using Integrative Genomics Viewer, IGV (Broad Institute (116)).

[2] = test system: GR-regulated gene expression in MDA-MB-231 cells; test: Gene expression microarray and analysis; type: cell-based, human
Protocol: MDA-MB-231 cells were grown to 80% confluence in 15-cm dishes in DMEM with 10% FBS. […] Following compound exposure, cells were washed in PBS, and lysed in RNA lysis buffer (Qiagen) overnight at -80° C. RNA extraction, with accompanying DNase treatment, was performed using the RNeasy kit (Qiagen) following the manufacturer's protocol. […] The University of Chicago Genomics Core facility carried out the reverse transcription on the samples, followed by microarray using the Affymetrix Human U133 Plus 2.0 platform. […] A principal components analysis (PCA) was performed using the prcomp function in R (Q-mode PCA using singular value decomposition). […] Dex-regulated genes were overlapped with a list of n=5,170 differentially-expressed tumor-derived genes (in the same direction) from GR-high versus GR-low BCs (52). Ingenuity Pathway Analysis (Qiagen) of the n=462 patient-relevant and antagonist-inhibited genes was performed to obtain Activation Z-scores of the most significant Diseases and Biofunctions (cell functions).

apoptotic cells = details: RU486 in conjunction with dexamethasone, compared to paclitaxel alone; cited from earlier work
tumor cell survival = details: in vitro and in vivo; cited from earlier work
[3] = mifepristone 300 mg/day before weekly nab-paclitaxel, BC patients; cited from earlier work

CC#C[C@]1(O)CC[C@H]2[C@@H]3CCC4=CC(=O)CCC4=C3[C@@H](c3ccc(N(C)C)cc3)C[C@@]21C [Mif, mifepristone]
Displacement of fluorescently-labeled Dex (F-Dex) from the GR LBD (GR LBD): low nM affinities | Fit of FP dose response curve (half-maximal FP signal) (GR LBD): able to fit data | Relative GR promoter enrichment (+/−3kb) [1]: decrease in relative GR promoter enrichment | Genes for which both GR modulators antagonized GR induction or repression by at least 25% ([2]; 100 nM with 100 nM Dex): 3,066 | Antagonized GR-regulated genes shared with the other antagonist ([2]; C297 versus Mif, 100 nM): 68% | Pathway activation Z-score (Ingenuity Pathway Analysis) relative to Dex ([2]; n=462 genes, cell survival, invasion, EMT pathways, FIG. 13): relative dampening of Z-score magnitude | Number of apoptotic cells induced by paclitaxel (apoptotic cells): did not increase the number of apoptotic cells | Paclitaxel cytotoxicity under GC activation (tumor cell survival): increase paclitaxel cytotoxicity both in vitro and in vivo | Safety and tolerability of the combination with nab-paclitaxel [3]: safe and tolerable; also recorded: potential for increased cytopenias
